Values joined by “and” are separate entries in the source; they are usually repeats but may differ in a detail not shown here. Identical values can stand only once. Like-named read-outs stand apart in the source and are kept apart here.
Columns and labels:
SXA [1] = biological target: T1, SXA (Selenomonas ruminantium, UniProt O52575); assay: SXA-catalyzed hydrolysis of 4NP-glycoside substrates, initial rates (Methods A and B); assay type: biochemical;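 further: initial rates from 4-nitrophenol release, tracked by absorbance over roughly 0.3 min and converted using product-minus-substrate extinction differences, in 1 mL mixtures started by enzyme addition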
Procedure: (§1) Two methods were employed for determining initial rates. […] Initial rates were calculated from fitting the absorbance readings versus time to a line (minimum of 4 points per reaction progression) and by using an extinction coefficient of 17.4 mM^−1 cm^−1. In Method B (continuous monitoring), temperature-equilibrated reactions (1 mL) were monitored at 380 nm (for pH values below 6) or 400 nm (for pH values of 6 and above). Reactions were generally monitored 0.3 min for initial rate determinations. Delta extinction coefficients (product-substrate) used for molar conversion were determined by subtracting the absorbance of substrate (at pH 5 so even very minor contaminating 4NP would not contribute) from the absorbance of 4NP for each reaction condition. […] The concentration of 4NP substrates was determined by incubating the substrate with excess enzyme until an end point was reached, adding an aliquot (0.01 to 0.1 mL) to 0.1 M NaOH, recording the absorbance at 400 nm and using the extinction coefficient of 18.3 cm^−1mM^−1. Unless indicated otherwise, for both Methods A and B, reactions were initiated by adding a small aliquot of enzyme (generally 7 μl of enzyme diluted into 10 mM sodium phosphate, pH 7.0, and incubated on wet ice or at ˜25° C.) to the 1-mL, temperature-equilibrated (25° C.) reaction mixtures. For pH studies, buffers of constant ionic strength (I=0.3 M), adjusted with NaCl, were used as indicated: 100 mM succinate-NaOH (pH 4.3-6), 100 mM sodium phosphate (pH 6-8), 30 mM sodium pyrophosphate (pH 8-9), glycine-NaOH (pH 9) and glycylglycine-NaOH (pH 9).

[2] = biological target: Selenomonas ruminantium GA192 β-D-xylosidase (SXA, parent SEQ ID NO: 2) variant E186A (Pseudoselenomonas ruminantium, UniProt O52575, E186A); assay: Steady-state kinetics of SXA mutant E186A with 4NP substrates
Procedure: (§2) Site-directed mutagenesis was performed using the QuikChange site-directed mutagenesis kit (Stratagene) according the manufacturer's instructions. […] Complete sequences were determined on a 3700 sequencer (Applied Biosystems) using T7 promoter and specific primers to confirm that only the intended mutations had been introduced. Lasergene software (DNAStar) was used to analyze the sequence data. pSRA1 and its mutated plasmids were used for the transformation of E. coli BL21(DE3). Transformants were inoculated to 50 mL Luria-Bertani (LB) broth supplemented with 50 mg ampicillin/mL and the flask was shaken overnight at 250 rpm and 37° C. Twenty mL of the overnight culture were transferred to a 2.8-liter baffled flask containing 1.0 liter SOB medium [2.0% tryptone, 0.5% yeast extract, 0.05% NaCl, 0.0186% KCl (all in wt/vol) and 10 mM MgSO4] supplemented with 50 mg ampicillin/mL. The culture was shaken at 250 rpm and 37° C. […] Cells were harvested by centrifugation and cell pellets were stored at −80° C. until use.
(§3) Initial purification steps and diafiltration steps were performed at 4° C. Chromatography was at room temperature (˜24° C.). Cells were thawed, suspended in 40 mL of 50 mM Tris-HCl, pH 7.5 (Buffer A) containing Complete protease inhibitor cocktail (Roche) and disrupted by sonication. Following centrifugation, the supernatant was brought to 30% saturation with respect to ammonium sulfate and centrifuged. […] The column was washed until absorbance at 280 nm of the eluate became minimal (˜200 mL) and developed with a 500-mL linear gradient (Buffer A+30% saturated ammonium sulfate to Buffer A).
(§4) Two methods were employed for determining initial rates. […] Initial rates were calculated from fitting the absorbance readings versus time to a line (minimum of 4 points per reaction progression) and by using an extinction coefficient of 17.4 mM^−1 cm^−1. […] The concentration of 4NP substrates was determined by incubating the substrate with excess enzyme until an end point was reached, adding an aliquot (0.01 to 0.1 mL) to 0.1 M NaOH, recording the absorbance at 400 nm and using the extinction coefficient of 18.3 cm^−1mM^−1. Unless indicated otherwise, for both Methods A and B, reactions were initiated by adding a small aliquot of enzyme (generally 7 μl of enzyme diluted into 10 mM sodium phosphate, pH 7.0, and incubated on wet ice or at ˜25° C.) to the 1-mL, temperature-equilibrated (25° C.) reaction mixtures. For pH studies, buffers of constant ionic strength (I=0.3 M), adjusted with NaCl, were used as indicated: 100 mM succinate-NaOH (pH 4.3-6), 100 mM sodium phosphate (pH 6-8), 30 mM sodium pyrophosphate (pH 8-9), glycine-NaOH (pH 9) and glycylglycine-NaOH (pH 9).

SXA [3] = biological target: T1, SXA; conditions: pH 5.3 and 25° C., relative to A2
Procedure: (§5) Samples (25 μL) were injected onto the column equilibrated with 0.1 M NaOH and developed with a 15-min linear gradient (0.1 M NaOH to 15 mM sodium acetate) at ˜25° C. and a flow rate of 1 mL min^−1.
(§6) Before (time=0 min) and after (time=1-6 min) initiating reactions with enzyme (7 μL), samples (0.05-0.1 mL) were removed and quenched with an equal volume of 0.5 M acetic acid and frozen. Following lyophilization, samples were dissolved in H2O and analyzed by HPLC. […] Results from two replicate reactions were combined to provide data points for the progress curves.
(§7) Before and after addition of enzyme (7 μL), 25-μl aliquots of the reaction mixtures were directly injected onto the HPLC column for quantification of product L-arabinose.

SXA [4] = biological target: T1, SXA; conditions: read-out: Km^4NPX; pH 5.3, 25° C., HPLC of D-xylose
Source text: Concentrations of D-xylose produced versus time were fitted to lines for determination of initial rates. For determination of steady-state kinetic parameters, initial rates were fitted to Eq. 2 (competitive inhibition).

[5] = biological target: Selenomonas ruminantium GA192 β-D-xylosidase (SXA, parent SEQ ID NO: 2) variant R290A (Pseudoselenomonas ruminantium, UniProt O52575, R290A); assay: Steady-state kinetics of SXA mutant R290A with 4NPX
Procedure: as §2, §3, §4

[6] = biological target: Selenomonas ruminantium GA192 β-D-xylosidase (SXA, parent SEQ ID NO: 2) variant D127A (Pseudoselenomonas ruminantium, UniProt O52575, D127A); assay: Steady-state kinetics of SXA mutant D127A with 4NPX
Procedure: as §2
(§8) Initial purification steps and diafiltration steps were performed at 4° C. Chromatography was at room temperature (˜24° C.). Cells were thawed, suspended in 40 mL of 50 mM Tris-HCl, pH 7.5 (Buffer A) containing Complete protease inhibitor cocktail (Roche) and disrupted by sonication. […] The column was washed until absorbance at 280 nm of the eluate became minimal (˜200 mL) and developed with a 500-mL linear gradient (Buffer A+30% saturated ammonium sulfate to Buffer A).
(§9) Two methods were employed for determining initial rates. […] Initial rates were calculated from fitting the absorbance readings versus time to a line (minimum of 4 points per reaction progression) and by using an extinction coefficient of 17.4 mM^−1 cm^−1. […] The concentration of 4NP substrates was determined by incubating the substrate with excess enzyme until an end point was reached, adding an aliquot (0.01 to 0.1 mL) to 0.1 M NaOH, recording the absorbance at 400 nm and using the extinction coefficient of 18.3 cm^−1mM^−1. […]

[7] = biological target: T2, Selenomonas ruminantium GA192 β-D-xylosidase (SXA), wild type, SEQ ID NO: 2 (Pseudoselenomonas ruminantium, UniProt O52575); assay: Steady-state kinetics of SXA with X2-X6, improved quenching, HPLC (Example 3); conditions: for factor by which kcat is higher than that of the Bacillus pumilus enzyme: SXA pH 5.3 vs B. pumilus pH 7.15, 25° C
Procedure: Samples (25 μL) were injected onto the column equilibrated with 0.1 M NaOH and developed with a 5-min linear gradient (0.1 M NaOH to 33 mM sodium acetate) at ˜25° C. and a flow rate of 1 mL min^−1.
Samples were kept on wet ice or the HPLC autosampler at 5° C. until analyzed by HPLC. Initial rates, calculated from linear regressions of the [D-xylose] produced versus time, were fitted to Eq. 1 to determine steady-state kinetic parameters.

[8] = biological target: Selenomonas ruminantium GA192 β-D-xylosidase (SXA, parent SEQ ID NO: 2) variant H248A (Pseudoselenomonas ruminantium, UniProt O52575, H248A); assay: Steady-state kinetics of SXA mutant H248A with 4NPX
Procedure: as §2, §8, §9

SXA [9] = biological target: T1, SXA; assay: biochemical; conditions: read-out: Km^4NPX; 100 mM succinate-NaOH, pH 5.3, 25° C.
[10] = biological target: Selenomonas ruminantium GA192 β-D-xylosidase (SXA, parent SEQ ID NO: 2) variant D14A (Pseudoselenomonas ruminantium, UniProt O52575, D14A); assay: Steady-state kinetics of SXA mutant D14A with 4NP substrates
Procedure: as §2, §3, §4

[11] = biological target: T2, Selenomonas ruminantium GA192 β-D-xylosidase (SXA), wild type, SEQ ID NO: 2; assay: Steady-state kinetics of SXA with 4NP-glycosides (Example 1, Methods A and B)
Procedure: Kinetics with 4NP Substrates
as §1

[12] = biological target: T2, Selenomonas ruminantium GA192 β-D-xylosidase (SXA), wild type, SEQ ID NO: 2; assay: Steady-state kinetics of SXA with 4NPX2, A2 and X2-X6 by HPLC (Example 1); conditions: for relative kcat value: A2 = 1
Procedure: as §5, §6, §7
Quenched samples were analyzed by HPLC for D-xylose. Initial rates were determined from linear regressions of [D-xylose] produced versus reaction time. […] Four 1-mL replicate reactions were conducted to supply data points for the progress curves. Two parallel reactions were conducted, under the same conditions with the same reaction components, the absorbance at 400 nm was continuously monitored (20 min) for 4NP production, and the absorbance values were converted to mM 4NP concentrations by using a delta extinction coefficient (product-substrate) of 8.22 mM^−1 cm^−1.

[13] = tested on: Bacillus pumilus β-xylosidase; conditions: pH 7, 25° C.; cited from earlier work
[14] = Exper. 1: succinate pH 5.3, Method A, η/ηo 1.00
[15] = Exper. 1: succinate pH 5.3, Method A, η/ηo 6.12 (50% sucrose)
[16] = Exper. 2: MES pH 6.00, Method B, η/ηo 1.00
[17] = Exper. 2: MES pH 6.00, Method B, η/ηo 6.85 (50% sucrose)
[18] = I=0.3 M, 25° C., Eq. 7 (4NPX), Eq. 5 (4NPA)
[19] = 100 mM succinate-NaOH, pH 5.3, 25° C, Method A
[20] = 100 mM succinate-NaOH, pH 5.3, 25° C

O=[N+]([O-])c1ccc(O[C@@H]2OC[C@@H](O)[C@H](O)[C@H]2O)cc1 [4NPX, 4-nitrophenyl-β-D-xylopyranoside]
pH-independent kcat (SXA [1]): 32.7±0.5 s^−1 | pH-independent kcat/Km (SXA [1]): 58.7±1.3 s^−1 mM^−1 | Relative Rate (SXA [1]; 5 mM 4NP glycoside, 100 mM succinate-NaOH, pH 5.3, 25° C., Method A, initial rate relative to 4NPX): 1.00 ± 0.01 | Km (SXA [1]; 100 mM sodium phosphate, pH 7.0, 25° C., Method B): 443 ± 8 µM | pH-independent 1/Km (SXA [1]; 1/Km versus pH, Eq. 4 (4NPX), Eq. 5 (4NPA)): 2.65±0.081 mM^−1 | pKa of 1/Km versus pH (single protonatable group) (SXA [1]; Eq. 4): 5.6 and 5.56±0.08 | Km (SXA [1]; [14]): 742 ± 41 µM | kcat Rel. to η/ηo = 1 (SXA [1]; [14]): 1.00 | Km (SXA [1]; [15]): 690 ± 35 µM | kcat Rel. to η/ηo = 1 (SXA [1]; [15]): 0.910 ± 0.0152 | Km (SXA [1]; [16]): 699 ± 35 µM | kcat Rel. to η/ηo = 1 (SXA [1]; [16]): 1.00 | Km (SXA [1]; [17]): 637 ± 81 µM | kcat Rel. to η/ηo = 1 (SXA [1]; [17]): 0.920 ± 0.040 | pKa1 of kcat versus pH (SXA [1]; I=0.3 M, 25° C., Eq. 5): 3.5 and ~3.6 and 3.54±0.10 | pKa1 of kcat/Km versus pH (SXA [1]; I=0.3 M, 25° C., Eq. 5): ~5.0 and 5.00±0.04 | pKa2 of kcat versus pH (SXA [1]; I=0.3 M, 25° C., Eq. 5): 6.9 and 6.90±0.03 | pKa2 of kcat/Km versus pH (SXA [1]; I=0.3 M, 25° C., Eq. 5): 7.23±0.04 | pKa1 of 1/Km versus pH (SXA [1]; [18]): 4.8 and 4.81±0.21 | pKa2 of 1/Km versus pH (SXA [1]; [18]): 6.4 and 6.39±0.26 | higher affinity of dianionic SXA (D14^−E186^−) than monoanionic SXA (D14^−E186^H) (SXA [1]; from pH dependency of 1/Km): ~2 fold and 1.9 fold | factor by which kcat of SXA is higher than that of the B. pumilus enzyme (SXA [1]; substrate 4NPX, SXA pH 5.3, 25° C. (Example 1) vs B. pumilus pH 7.15, 25° C.): 4 | kcat [2, 19]: 0.00267 ± 0.00005 s⁻¹ | factor by which kcat is degraded vs wild type ([2]; pH 5.3, 25° C.): 12000 | relative kcat values (SXA [3]): 340 | Km (SXA [4]): 758 ± 59 µM | kcat ([5]; 100 mM succinate-NaOH, pH 5.3, 25° C, Method A, not well determined (highest 4NPX 5 mM)): 0.0126 ± 0.0020 s⁻¹ | factor by which kcat is degraded vs wild type ([5]; pH 5.3, 25° C.): 2500 | increase of Km(4NPX) vs wild type ([5]; pH 5.3, 25° C.): 70 fold | kcat [6, 19]: 0.000129 ± 0.000003 s⁻¹ | factor by which kcat is degraded vs wild type ([6]; pH 5.3, 25° C.): 24000 | factor by which kcat is higher than that of the Bacillus pumilus enzyme [7]: 4 | kcat [8, 19]: 0.0950 ± 0.0025 s⁻¹ | factor by which kcat is degraded vs wild type ([8]; pH 5.3, 25° C.): 330 | Km (SXA [9]): 716 ± 32 µM | kcat [10, 19]: 0.00954 ± 0.00016 s⁻¹ | factor by which kcat is degraded vs wild type ([10]; pH 5.3, 25° C.): 3300 | kcat ([11]; 100 mM MES-NaOH, pH 6.00, 25° C, Method B, 50% sucrose, η/ηo 6.85): 30.1 ± 1.1 s⁻¹ | kcat ([11]; 100 mM MES-NaOH, pH 6.00, 25° C, Method B, η/ηo 1.00): 32.9 ± 0.5 s⁻¹ | kcat ([11]; 100 mM succinate-NaOH, pH 5.3, 25° C, Method A, no sucrose): 32.8 ± 0.6 s⁻¹ and 31.1 ± 0.4 s⁻¹ | affinity of dianionic SXA (D14^−E186^−), higher than that of monoanionic SXA (D14^−E186^H) ([11]; from pH dependence of 1/Km): ~2 fold and 1.9 fold | kcat ([11]; pH 5.3, 25° C, Method A, 50% sucrose, η/ηo 6.12): 29.8 ± 0.5 s⁻¹ | kcat Rel. to η/ηo = 1 ([11]; pH 5.3, η/ηo 6.12): 0.910 ± 0.0152 | kcat Rel. to η/ηo = 1 ([11]; pH 6.00, η/ηo 6.85): 0.920 ± 0.040 | pH-independent kcat ([11]; pH profile, I=0.3 M, Method B): 32.7±0.5 s^−1 | relative kcat value ([12]; pH 5.3, 25° C): 340

OC1OC[C@@H](O[C@@H]2OC[C@@H](O)[C@H](O)[C@H]2O)[C@H](O)[C@H]1O (stereo partly drawn) [X2, 1,4-β-D-xylobiose]
kcat [13]: 18 s⁻¹ | kcat [7, 20]: 185 ± 3 s⁻¹ | factor by which kcat is higher than that of the Bacillus pumilus enzyme [7]: 10 | affinity of dianionic SXA (D14^−E186^−), lower than that of monoanionic SXA (D14^−E186^H) ([7]; from pH dependence of 1/Km): 2.9 fold and 3 fold | kcat ([7]; pH 5.3, 25° C (improved technique), approximate): approximately 185 sec^−1 | pH-independent kcat ([7]; pH profile, I=0.3 M, 25° C): 172±2 | kcat [12, 20]: 412 s⁻¹ and 412 ± 18 s⁻¹ | kcat ([12]; pH 5.3, 25° C (Example 1), approximate): approximately 410 sec^−1 | relative kcat value ([12]; pH 5.3, 25° C): 5600 | kcat relative to that of substrates X3-X6 ([12]; pH 5.3, 25° C.): 2-4 fold | kcat ratio X2 vs 4NPX ([12]; same reaction conditions, pH 5.3, 25° C.): 12 fold and 13 fold
